Consider 6 compounds from paper PMC9200763 (Scientific Reports, 2022).

Values after ≈ are worked out from the molar mass of the structure shown. Where two headings read alike, the source gives them in different places.

Data set [1] is described as follows: Metal chelating activity assay. The class given is biochemical. To be noted: for Metal chelating EC50: analyzed using XLSTAT software.
Details of data set [2]: method as in PMID 23181593. As to conditions: at 100 μg/mL; cited from earlier work.
The next data set is described as follows: ABTS assay. To be noted: for ABTS scavenging EC50: analyzed using XLSTAT software. The class given is biochemical.
On the set-up of data set [3]: method as in PMID 23181593. As to conditions: cited from earlier work.
The nature of data set [4]: DPPH free radical scavenging activity. The class given is biochemical. To be noted: for DPPH scavenging EC50: analyzed using XLSTAT software. In general terms: The DPPH test is a chemical assay of radical scavenging.
The test system of data set [5] is Allium cepa root. The data set can be described thus: Allium cepa assay, root growth. As to conditions: 1 μL/mL.
Data set [6] relates to Allium cepa root tips. The data set can be described thus: Allium cepa assay, mitotic index and stages of dividing cells. An excerpt: (§1) The frequency of chromosomal aberration was checked following protocol of Babatunde and Bakare[31].
The test system of data set [7] is Allium cepa root tips. The data set can be described thus: Allium cepa assay, chromosomal aberration test. To be noted: 01.00 µL/mL; 72 h.
Source text: as §1

In the next data set the target is Acetylcholinesterase (Homo sapiens, UniProt P22303). Nature of the data set: Acetylcholinesterase inhibitory assay. The class given is biochemical.
Sequence of Acetylcholinesterase (P22303 32-614, species assumed): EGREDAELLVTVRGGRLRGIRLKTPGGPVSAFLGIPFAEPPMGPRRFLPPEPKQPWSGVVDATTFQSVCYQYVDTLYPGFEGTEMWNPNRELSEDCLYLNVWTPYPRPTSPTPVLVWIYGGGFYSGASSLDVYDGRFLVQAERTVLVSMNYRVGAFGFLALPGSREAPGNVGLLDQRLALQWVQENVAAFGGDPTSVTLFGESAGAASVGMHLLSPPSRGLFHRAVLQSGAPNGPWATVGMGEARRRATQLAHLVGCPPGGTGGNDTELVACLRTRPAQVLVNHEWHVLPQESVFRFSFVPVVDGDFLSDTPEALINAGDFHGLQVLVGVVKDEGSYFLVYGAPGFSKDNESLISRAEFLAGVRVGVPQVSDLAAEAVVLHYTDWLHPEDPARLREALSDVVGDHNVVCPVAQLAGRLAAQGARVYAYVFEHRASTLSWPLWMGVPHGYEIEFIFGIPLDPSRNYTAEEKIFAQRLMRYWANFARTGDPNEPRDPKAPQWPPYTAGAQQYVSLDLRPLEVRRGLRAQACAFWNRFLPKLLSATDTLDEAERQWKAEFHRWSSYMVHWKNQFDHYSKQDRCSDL
For the next data set, the system named is AChE. Details: method as in PMID 19351555. To be noted: cited from earlier work.
Data set [8] relates to Staphylococcus aureus ATCC-11632. The data set can be described thus: Broth micro dilution MIC. To be noted: ATCC11632, S. aureus. The class given is cell-based.
Another data set has as its system A. niger ATCC-16885. The data set can be described thus: Disc diffusion, zone of inhibition. Background: In agar diffusion tests the substance spreads into inoculated agar from a disc or well.
Data set [9] has as its system Allium cepa root. As to conditions: 1 μL/mL.
For data set [10], the system named is Aspergillus fumigatus ATCC-204305. Nature of the data set: Broth micro dilution MIC. The class given is cell-based. As to conditions: ATCC204305, A. fumigatus.
Another data set concerns B. cereus ATCC-10876. The data set can be described thus: Disc diffusion, zone of inhibition. As to conditions: Bacillus cereus.
Data set [11] has as its system Streptococcus mutans ATCC-25175. The data set can be described thus: Disc diffusion, zone of inhibition.
In the next data set the test system is BChE. More on the design: method as in PMID 19351555. As to conditions: cited from earlier work.
Data set [12] deals with Bacillus subtilis ATCC-11774. Nature of the data set: Broth micro dilution MIC. It is filed as cell-based. To be noted: ATCC11774, B. subtilis.
Data set [13] deals with Staphylococcus aureus ATCC-11632. Nature of the data set: Disc diffusion, zone of inhibition.
Data set [14] deals with Candida albicans ATCC-66027. Nature of the data set: Disc diffusion, zone of inhibition.
The target of another data set is α-Amylase. The data set can be described thus: Antidiabetic activity assay (α-amylase inhibitory). The class given is biochemical.
The target of the next data set is T1, egg albumin (Gallus gallus, UniProt P01012).
T1 construct: albumin was extracted from a fresh egg collected from local market of Jorhat, India; from tissue; host or cells: fresh egg (egg white), local market
T1 sequence (P01012 whole entry): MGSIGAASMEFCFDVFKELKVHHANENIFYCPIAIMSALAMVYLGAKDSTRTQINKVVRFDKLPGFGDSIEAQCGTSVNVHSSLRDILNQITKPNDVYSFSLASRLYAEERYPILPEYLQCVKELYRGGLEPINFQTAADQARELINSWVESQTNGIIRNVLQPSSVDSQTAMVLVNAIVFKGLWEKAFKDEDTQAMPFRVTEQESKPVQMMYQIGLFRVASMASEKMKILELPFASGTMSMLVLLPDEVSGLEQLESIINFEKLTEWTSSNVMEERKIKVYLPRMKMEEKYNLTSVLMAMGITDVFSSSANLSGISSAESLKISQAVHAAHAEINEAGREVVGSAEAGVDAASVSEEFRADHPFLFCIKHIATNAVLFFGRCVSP
Nature of the data set: Protein egg albumin denaturation assay. The class given is biochemical.

The subject of data set [15] is Aspergillus fumigatus ATCC-204305. The data set can be described thus: Disc diffusion, zone of inhibition.
Data set [16] relates to Saccharomyces cerevisiae ATCC-9763. The data set can be described thus: Disc diffusion, zone of inhibition.
The test system of data set [17] is Bacillus subtilis ATCC-11774. Nature of the data set: Disc diffusion, zone of inhibition.
The next data set deals with A. parasiticus. To be noted: cited from earlier work.
Data set [18] has as its system Streptococcus mutans ATCC-25175. The data set can be described thus: Broth micro dilution MIC. To be noted: ATCC25175, S.mutans. It is filed as cell-based.
Data set [19] concerns Salmonella typhimurium ATCC-13311. The data set can be described thus: Disc diffusion, zone of inhibition. As to conditions: Salmonella enterica, S. typhimurium, read-out: Zone of inhibition, standard drug. It is filed as cell-based. Here is the method:
Ciprofloxacin and fluconazole were used as standard antimicrobial drugs at a concentration (10 μg/disc) for bacterial and fungal strains, respectively.
MHA was used for culturing the bacteria from bacterial broth and kept at 37 °C for 24 h. The fungal broth was used to prepare fungal culture in PDB and it was kept at 28 °C for 48 h.

The mark [20] stands for this setting: analyzed using Graph Pad Prism software.
Setting [21] is: analyzed using MS-EXCEL software.
Where [22] appears, read: Aspergillus fumigatus, ATCC204305.

For `O=C(O)CN(CCN(CC(=O)O)CC(=O)O)CC(=O)O` [EDTA, ethylenediamminetetracetic acid], the “Metal chelating IC50” value in data set [1] (setting [20]) is given as 12.11 ± 0.002 µg/mL; in data set [1] (setting [21]) it was 29.92 ± 0.002 µg/mL. Further, in data set [1], the “Metal chelating EC50” value was 29.33 ± 0.064 µg/mL.
In the case of `O=C1O[C@H]([C@@H](O)CO)C(O)=C1O` [Ascorbic acid], the Reducing power in data set [2] was 0.85. Further, the “ABTS scavenging IC50” value in “ABTS assay” (setting [20]) is recorded as 39.31 ± 0.84 µg/mL; in the data set “ABTS assay” (setting [21]), 17.61 ± 0.012 µg/mL. In addition, the “ABTS scavenging EC50” value in “ABTS assay” came out at 19.54 ± 0.121 µg/mL. The DPPH scavenging activity in data set [3] (at 1000 μg/mL) is 99.65%. Moreover, the “DPPH IC50” value in data set [3] is 5.15 µg/mL. In addition, the “DPPH scavenging IC50” value came out at 0.60 ± 0.121 µg/mL in data set [4] (setting [20]) and 17.27 ± 0.004 µg/mL in data set [4] (setting [21]). For the same compound, the “DPPH scavenging EC50” value in data set [4] was 17.55 ± 0.056 µg/mL.
Take `CCOS(C)(=O)=O` [EMS, ethyl methanesulphonate]: the “Root length after treatment ± SD” value in the data set with Allium cepa root [5] (after treatment) was 7.31 ± 0.013 cm. The “Root length before treatment ± SD” value with Allium cepa root [5] (before treatment) turned out to be 7.24 ± 0.014 cm. Besides, in the data set with Allium cepa root tips [6] (Allium cepa root tips, 1 μL/mL), the “Metaphase, dividing cells” value is recorded as 13.27%; the Mitotic index was found to be 1.96%; the “Prophase, dividing cells” value amounted to 86.73%. For the same compound, in the data set with Allium cepa root tips [7], the “Chromosomal aberration: Breakage” value was found to be 15, the “Chromosomal aberration: Bridges” value was 30, the “Chromosomal aberration: Clumped” value was 14 and the “Chromosomal aberration: Multipolarity” value was 21. Moreover, in the data set with Allium cepa root tips [7], the “Chromosomal aberration: Stickiness” value was found to be 28 and the Total abberations is 21.60%.
What is called EC50 is the concentration that produces a half-maximal response. The term IC50 denotes the midpoint of a concentration-inhibition curve. Lower therefore signals greater potency in that assay. The term MIC denotes the lowest concentration found to suppress growth. Higher therefore signals a less susceptible organism. In general, zone of inhibition refers to the size of the clear area around the sample on an inoculated plate. For the compound `C/C=C/c1ccc(OC)cc1` [Anethole standard, anethole], the “Metal chelating IC50” value stood at 12.15 ± 0.032 µg/mL in [1] (setting [20]) and 31.02 ± 0.018 µg/mL in [1] (setting [21]). For the same compound, the “Metal chelating EC50” value in data set [1] was 29.54 ± 0.032 µg/mL. The concentration for a half-maximal effect (EC50) is 208 µM on Acetylcholinesterase and 132 µM at egg albumin. For the same compound, the IC50 was 145 µM against Acetylcholinesterase (Acetylcholinesterase inhibitory IC50, analyzed using Graph Pad Prism software); 228 µM at Acetylcholinesterase (Acetylcholinesterase inhibitory IC50, analyzed using MS-EXCEL software); 1380 µM on egg albumin (Protein denaturation IC50, analyzed using Graph Pad Prism software); 130 µM on egg albumin (Protein denaturation IC50, analyzed using MS-EXCEL software). In the data set with AChE, the “AChE inhibitory IC50” value is 134.70 µg/mL. For the same compound, the MIC in data set [8] turned out to be 95 µg/mL (≈ 641 µM); in data set [10], 65 µg/mL (≈ 439 µM); in [12], 90 µg/mL (≈ 607 µM); in data set [18], 15 µg/mL (≈ 101 µM). The zone of inhibition at 250 µg/mL was determined as 16 mm with A. niger ATCC-16885 (Aspergillus niger, ATCC16885); 13 mm with B. cereus ATCC-10876 (ATCC10876); 18 mm in [11] (ATCC25175); 10 mm in data set [13] (ATCC11632); 14 mm in data set [15] (setting [22]); 11 mm in data set [17] (ATCC11774). In addition, the zone of inhibition at 500 µg/mL with A. niger ATCC-16885 (Aspergillus niger, ATCC16885) stood at 21 mm; in the data set on B. cereus ATCC-10876 (ATCC10876), 16 mm; in data set [11] (ATCC25175) it was 23 mm; in data set [13] (ATCC11632), 14 mm; in data set [14] (Candida albicans, ATCC66027), 19 mm; in data set [15] (setting [22]), 18 mm. Further, the zone of inhibition at 500 µg/mL in data set [16] (Saccharomyces cerevisiae, ATCC9763) was 16 mm; in data set [17] (ATCC11774), 13 mm. In addition, the “Root length before treatment ± SD” value in the data set with Allium cepa root [9] (0 h) is reported as 7.71 ± 0.016 cm. The “Root length after treatment ± SD” value in the data set on Allium cepa root [9] (72 h) stood at 8.36 ± 0.009 cm. The compound also showed a zone of inhibition at 50 µg/mL in data set [11] (ATCC25175) of 12 mm. The values for the zone of inhibition at 100 µg/mL in [11] (ATCC25175), in data set [13] (ATCC11632) and in [17] (ATCC11774) were 16 mm, 8 mm and 8 mm, respectively. Besides, in the data set with Allium cepa root tips [6], the “Genotoxic effect (in words)” value is given as “no genotoxic effect”. Moreover, the “Anaphase, dividing cells” value with Allium cepa root tips [6] (Allium cepa, 1 μL/mL) came to 13.51%. Further, in the data set with Allium cepa root tips [6] (Allium cepa, 1 μL/mL), the “Metaphase, dividing cells” value is on record as 18.92%. Further, the “Prophase, dividing cells” value in the data set with Allium cepa root tips [6] (Allium cepa, 1 μL/mL) is 59.46%. The “Telophase, dividing cells” value in the data set with Allium cepa root tips [6] (Allium cepa, 1 μL/mL) came to 8.10%. For the same compound, the “BChE inhibitory IC50” value in the data set with BChE is given as 209.60 µg/mL. Besides, the “α-Amylase inhibitory IC50” value on α-Amylase (setting [20]) worked out at 13.08 ± 0.016 µg/mL; at α-Amylase (setting [21]) it was 22.16 ± 0.12 µg/mL. In addition, the “α-Amylase inhibitory EC50” value at α-Amylase (analyzed using XLSTAT software) was 21.75 ± 0.008 µg/mL. The “ABTS scavenging IC50” value in the data set “ABTS assay” (setting [20]) was found to be 34.9 ± 0.004 µg/mL; in “ABTS assay” (setting [21]), 9.26 ± 0.002 µg/mL. The “ABTS scavenging EC50” value in the data set “ABTS assay” stood at 9.48 ± 0.048 µg/mL. For the same compound, in the data set on A. parasiticus, the “Concentration that inhibits completely the growth of A. parasiticus” value is 400 µg/mL. Besides, the “DPPH scavenging IC50” value worked out at 0.58 ± 0.048 µg/mL in data set [4] (setting [20]) and 10.94 ± 0.026 µg/mL in data set [4] (setting [21]). Besides, in data set [4], the “DPPH scavenging EC50” value was 8.69 ± 0.058 µg/mL.
As to `OC(Cn1cncn1)(Cn1cncn1)c1ccc(F)cc1F` [fluconazole], the “Zone of inhibition, standard drug” value in the data set with A. niger ATCC-16885 (A. niger, 10 µg/disc) is recorded as 12 ± 0.013 mm; in data set [14] (C. albicans, 10 µg/disc), 20 ± 0.014 mm; in data set [15] (A. fumigatus, 10 µg/disc), 16 ± 0.011 mm; in data set [16] (S. cerevisiae, 10 µg/disc), 14 ± 0.016 mm. Also, the zone of inhibition at 10 µg/disc in the data set on A. niger ATCC-16885 (Aspergillus niger, ATCC16885, read-out: Zone of inhibition, standard drug) was 12 mm; in data set [14] (Candida albicans, ATCC66027, read-out: Zone of inhibition, standard drug) it was 20 mm; in [15] (Aspergillus fumigatus, ATCC204305, read-out: Zone of inhibition, standard drug), 16 mm; in data set [16] (Saccharomyces cerevisiae, ATCC9763, read-out: Zone of inhibition, standard drug) it was 14 mm.
Take `O=C(O)c1cn(C2CC2)c2cc(N3CCNCC3)c(F)cc2c1=O` [ciprofloxacin, Ciprofloxacin]: the zone of inhibition at 10 µg/disc was 15 ± 0.013 mm with B. cereus ATCC-10876 (ATCC10876, read-out: Zone of inhibition, standard drug); 7 ± 0.015 mm in data set [11] (ATCC25175, read-out: Zone of inhibition, standard drug); 19 ± 0.017 mm in data set [13] (ATCC11632, read-out: Zone of inhibition, standard drug); 21 ± 0.015 mm in data set [19]; 16 ± 0.015 mm in [17] (ATCC11774, read-out: Zone of inhibition, standard drug).
